{"source": "patent US6187559A", "about": "“Phospholipase D gene” (Novartis AG, priority 1998, dated 2001)", "tested_on": "PLD (phospholipase D)", "assay": "Assay for PLD activity (release of 3H choline from radiolabeled PC)", "format": "biochemical", "details": "substrate [methyl-3H] choline dipalmitoyl PC; PLDT buffer (20 mM Tris-HCl pH 7.0, 1.0 mM EDTA, 0.05% Triton X-100), 37° C.", "method": "The PLD assay measured the release of ^3 H choline from radiolabeled PC (Steed et al. (1996) Biochemistry 35:5229-5237). Product was separated from substrate by partitioning into water from a chloroform:methanol extraction. ^3 H PC substrate was prepared by drying stock (in methanol) with argon and re-dissolving into minimal volumes of methanol (2-10 μl). After dilution with a buffer of 20 mM Tris-HCl, pH 7.0, 1.0 mM EDTA and 0.05% Triton X-100 (PLDT buffer) to a 5× concentration, the substrate was sonicated for 30 sec and used immediately. The assay was performed with 1.0 μM [methyl-^3 H] choline L-a-PC dipalmitoyl phosphatidylcholine (0.1 μCi/assay) and enzyme with PLDT buffer added to a final volume of 50 μl using polypropylene tubes. Since the estimated Km is greater than 1 μM, PC is limiting in this assay. Unfortunately, the solubility constraints of the lipid substrate preclude the use of higher PC concentrations. […] The radioactivity in the aqueous phase (200 μl) was counted in either a Beckman LS 3801 (Beckman Instruments Columbia Md.) or Wallac 1450 Microbeta Plus (Wallac Inc., Gaithersburg Md.) liquid scintillation counter after the addition of scintillant. […] The material was assayed using transphosphatidylation to butanol and ethanol to verify that PLD activity is being measured. […]", "data": [{"smiles": "CCCCCCCCCCCCCCCC(=O)OC[C@H](COP(=O)([O-])OCC[N+](C)(C)C)OC(=O)CCCCCCCCCCCCCCC", "note": "[PC, dipalmitoyl phosphatidylcholine]", "values": [{"measurement": "estimated Km", "result": "greater than 1 μM"}]}]}
